Reference: paper PMC7909954 (eLife, 2021)
Where “and” joins values, the source holds several entries; their conditions need not be identical. Equal values may be shown once. Entries after “also recorded” stand apart in the source; their conditions may differ.

Experiments:
[1] = biological target: T1, DOR (Homo sapiens, UniProt P41143); assay: Radioligand binding counter-screen (NIMH PDSP); set-up: National Institutes of Mental Health Psychoactive Drug Screen Program (service)
[2] = tested on: MOR KO, KOR KO and DOR KO mice; assay: 55°C warm-water tail-withdrawal assay in opioid receptor knock out mice; format: in vivo, mouse
[3] = biological target: T1, DOR; assay: cell-based
[4] = biological target: T2, mMOR (Mus musculus, UniProt P42866); assay: cell-based
T2 sequence (P42866 whole entry): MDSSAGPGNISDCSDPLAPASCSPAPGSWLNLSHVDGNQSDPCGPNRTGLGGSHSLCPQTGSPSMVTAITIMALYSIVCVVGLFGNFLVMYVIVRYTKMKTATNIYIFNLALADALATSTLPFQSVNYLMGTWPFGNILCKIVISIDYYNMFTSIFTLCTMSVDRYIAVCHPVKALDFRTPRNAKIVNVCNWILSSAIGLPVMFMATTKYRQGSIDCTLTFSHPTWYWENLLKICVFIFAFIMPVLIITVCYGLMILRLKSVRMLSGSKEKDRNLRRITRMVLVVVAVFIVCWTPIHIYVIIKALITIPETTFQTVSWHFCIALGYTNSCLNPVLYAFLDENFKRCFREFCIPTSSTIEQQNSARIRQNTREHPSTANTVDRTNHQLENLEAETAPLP

[5] = biological target: T2, mMOR; assay: biochemical
[6] = biological target: mKOR (Mus musculus, UniProt P33534); assay: biochemical
mKOR, sequence (P33534 whole entry): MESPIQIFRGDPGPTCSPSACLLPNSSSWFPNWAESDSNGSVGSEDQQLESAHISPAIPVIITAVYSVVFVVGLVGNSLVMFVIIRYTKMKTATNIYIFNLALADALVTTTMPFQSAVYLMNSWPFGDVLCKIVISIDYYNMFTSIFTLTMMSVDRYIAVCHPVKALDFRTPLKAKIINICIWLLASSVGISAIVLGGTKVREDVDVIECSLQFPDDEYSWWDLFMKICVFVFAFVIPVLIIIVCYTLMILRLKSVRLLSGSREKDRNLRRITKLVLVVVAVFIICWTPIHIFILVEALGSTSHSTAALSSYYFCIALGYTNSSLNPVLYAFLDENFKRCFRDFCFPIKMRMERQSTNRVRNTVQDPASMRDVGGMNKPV

[7] = biological target: KOR (Homo sapiens, UniProt P41145); assay: Radioligand binding counter-screen (NIMH PDSP); set-up: NIMH Psychoactive Drug Screening Program
KOR, sequence (P41145 whole entry): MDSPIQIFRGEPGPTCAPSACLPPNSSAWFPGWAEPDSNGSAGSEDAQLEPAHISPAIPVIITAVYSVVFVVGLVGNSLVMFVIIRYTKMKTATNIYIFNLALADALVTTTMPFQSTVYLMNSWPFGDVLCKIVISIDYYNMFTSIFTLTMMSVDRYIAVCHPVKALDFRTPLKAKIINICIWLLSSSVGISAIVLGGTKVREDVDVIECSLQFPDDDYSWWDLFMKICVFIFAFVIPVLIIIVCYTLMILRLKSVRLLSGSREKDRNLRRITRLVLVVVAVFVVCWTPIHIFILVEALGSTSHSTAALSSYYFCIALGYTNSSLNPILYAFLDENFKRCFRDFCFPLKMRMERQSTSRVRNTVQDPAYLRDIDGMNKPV

[8] = tested on: 330 non-olfactory GPCRs; assay: PRESTO-Tango GPCRome β-arrestin recruitment off-target screen; format: cell-based; settings: 3 μM, follow-up concentration–response
Experimental: To identify potential off-target activity of MP1207, we used the National Institutes of Mental Health Psychoactive Drug Screen Program. MP1207 was first tested for activity against 330 non-olfactory GPCRs using the PRESTO-Tango GPCRome screening β-arrestin recruitment assay at 3 μM MP1207. The activity at each receptor was measured in quadruplicate.
Screening of compounds was accomplished using previously described methods with several modifications ([Kroeze et al., 2015]). First, HTLA cells were plated in DMEM with 2% dialyzed FBS and 10 U/mL penicillin-streptomycin. Next, the cells were transfected using an in-plate PEI method ([Longo et al., 2013]). PRESTO-Tango receptor DNAs were resuspended in OptiMEM and hybridized with PEI prior to dilution and distribution into 384-well plates and subsequent addition to cells. After overnight incubation, drugs diluted in DMEM with 1% dialyzed FBS were added to cells without replacement of the medium. The remaining steps of the PRESTO-Tango protocol were followed as previously described.
Appendix 1—figure 6. […] MP1207 was screened against 330 non-olfactory GPCRs for agonism in the arrestin recruitment TANGO assay. […] MP1207 induces an increase in signal twofold over basal at opioid receptors predominantly at KOR and DOR and much less at MOR.

[9] = DOR KO mice, 100 nmol i.c.v. in 50% DMSO, group mean n=8
[10] = DOR KO mice, 100 nmol i.c.v. in 50% DMSO, individual mouse
[11] = KOR KO mice, 100 nmol i.c.v. in 50% DMSO, group mean n=8
[12] = KOR KO mice, 100 nmol i.c.v. in 50% DMSO, individual mouse
[13] = KOR KO mice, 100 nmol i.c.v. in 50% DMSO, group mean n=6
[14] = KOR KO mice, 100 nmol i.c.v., per mouse
[15] = MP1207 30 nmol icv, MP1208 35 nmol icv

T1 sequence (P41143 whole entry): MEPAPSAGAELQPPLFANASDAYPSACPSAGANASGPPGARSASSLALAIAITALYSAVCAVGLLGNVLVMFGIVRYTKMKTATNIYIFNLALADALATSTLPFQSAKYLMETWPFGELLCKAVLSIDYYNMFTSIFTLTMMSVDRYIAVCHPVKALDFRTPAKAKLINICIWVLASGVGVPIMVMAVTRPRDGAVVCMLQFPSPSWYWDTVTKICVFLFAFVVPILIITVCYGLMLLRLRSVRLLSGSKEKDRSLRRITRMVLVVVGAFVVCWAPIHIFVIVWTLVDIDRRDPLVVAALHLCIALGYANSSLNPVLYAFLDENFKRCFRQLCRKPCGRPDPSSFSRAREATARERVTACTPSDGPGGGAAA

NCc1cccc(C(=O)N[C@@H]2CCC3C4Cc5ccc(O)c6c5[C@@]3(CCN4CC3CC3)C2O6)c1 (stereo partly drawn) [MP1207, 3-(Aminomethyl)-N-((7R,12bS)−3-(cyclopropylmethyl)−9-hydroxy-2,3,4,4a,5,6,7,7a-octahydro-1H-4,12-methanobenzofuro[3,2-e]isoquinolin-7-yl)benzamide]
Ki [1]: 60.1 nM
%A-10 min [2, 9]: 77.68%
tail-withdrawal latency, 10 min [2, 9]: 12.075 s
%A-10 min [2, 10]: 100% and 14.62% and 6.82%
tail-withdrawal latency, 10 min [2, 10]: 15 s and 3.9 s and 2.7 s
%A-20 min [2, 9]: 75.4713%
tail-withdrawal latency, 20 min [2, 9]: 11.775 s
%A-20 min [2, 10]: 100% and 91.85% and 84.33% and 20.77% and 6.82%
tail-withdrawal latency, 20 min [2, 10]: 15 s and 13.9 s and 12.9 s and 4.7 s and 2.7 s
%A-30 min [2, 9]: 78.53%
tail-withdrawal latency, 30 min [2, 9]: 12.1875 s
%A-30 min [2, 10]: 100% and 13.85% and 14.39%
tail-withdrawal latency, 30 min [2, 10]: 15 s and 3.8 s and 3.7 s
%A-40 min [2, 9]: 46.6687%
tail-withdrawal latency, 40 min [2, 9]: 7.925 s
%A-40 min [2, 10]: 100% and 51.85% and 38.64% and 23.13% and 45.52% and 89.78% and 12.31% and 12.12%
tail-withdrawal latency, 40 min [2, 10]: 15 s and 8.5 s and 6.9 s and 4.7 s and 7.7 s and 13.6 s and 3.6 s and 3.4 s
%A-50 min [2, 9]: 38.3875%
tail-withdrawal latency, 50 min [2, 9]: 6.8 s
%A-50 min [2, 10]: 62.12% and 17.04% and 35.61% and 100% and 29.1% and 37.96% and 17.69% and 7.58%
tail-withdrawal latency, 50 min [2, 10]: 10 s and 3.8 s and 6.5 s and 15 s and 5.5 s and 4.3 s and 2.8 s
%A-60 min [2, 9]: 43.0038%
tail-withdrawal latency, 60 min [2, 9]: 7.425 s
%A-60 min [2, 10]: 62.12% and 55.56% and 25% and 100% and 36.57% and 36.5% and 16.92% and 11.36%
tail-withdrawal latency, 60 min [2, 10]: 10 s and 9 s and 5.1 s and 15 s and 6.5 s and 6.3 s and 4.2 s and 3.3 s
%A-70 min [2, 9]: 13.2125%
tail-withdrawal latency, 70 min [2, 9]: 3.4375 s
%A-70 min [2, 10]: 10.61% and 9.63% and 20.45% and 13.43% and 5.97% and 19.71% and 9.23% and 16.67%
tail-withdrawal latency, 70 min [2, 10]: 3.2 s and 2.8 s and 4.5 s and 3.4 s and 2.4 s and 4 s
%A-80 min [2, 9]: 8.564%
tail-withdrawal latency, 80 min [2, 9]: 2.8125 s
%A-80 min [2, 10]: 5.3% and 7.41% and 6.82% and 9.7% and 4.48% and 5.84% and 11.54% and 17.42%
tail-withdrawal latency, 80 min [2, 10]: 2.5 s and 2.7 s and 2.9 s and 2.2 s and 2.1 s and 3.5 s and 4.1 s
%A-90 min [2, 9]: 3.185%
tail-withdrawal latency, 90 min [2, 9]: 1.95 s
%A-90 min [2, 10]: 3.03% and 3.7% and 0% and 5.11% and 13.64%
tail-withdrawal latency, 90 min [2, 10]: 2.2 s and 2 s and 1.5 s and 1.4 s and 1.1 s and 1.8 s and 3.6 s
%A-100 min [2, 9]: 2.474%
tail-withdrawal latency, 100 min [2, 9]: 1.925 s
%A-100 min [2, 10]: 0% and 2.22% and 0.75% and 2.24% and 0.73% and 13.85%
tail-withdrawal latency, 100 min [2, 10]: 1.6 s and 1.8 s and 1.4 s and 1.7 s and 1.9 s and 3.8 s
%A-110 min [2, 9]: 0.555%
tail-withdrawal latency, 110 min [2, 9]: 1.6125 s
%A-110 min [2, 10]: 0% and 2.22% and 1.49% and 0.73%
tail-withdrawal latency, 110 min [2, 10]: 1.3 s and 1.8 s and 1.6 s and 1.4 s and 1.9 s and 1.7 s
%A-10 min [2, 11]: 63.4062%
tail-withdrawal latency, 10 min [2, 11]: 10.1 s
%A-10 min [2, 12]: 100% and 52.52% and 98.5% and 0% and 0.76%
tail-withdrawal latency, 10 min [2, 12]: 15 s and 8.4 s and 14.8 s and 1.8 s and 1.9 s
%A-20 min [2, 11]: 39.6638%
tail-withdrawal latency, 20 min [2, 11]: 6.8125 s
%A-20 min [2, 12]: 34.59% and 36.76% and 15.83% and 23.31% and 0% and 6.82%
tail-withdrawal latency, 20 min [2, 12]: 6.3 s and 6.4 s and 3.3 s and 4.8 s and 1 s and 2.7 s
%A-30 min [2, 11]: 26.1938%
tail-withdrawal latency, 30 min [2, 11]: 5.125 s
%A-30 min [2, 12]: 21.8% and 44.85% and 16.55% and 0% and 4.55%
tail-withdrawal latency, 30 min [2, 12]: 4.6 s and 7.5 s and 3.4 s and 2.2 s and 2.4 s
%A-40 min [2, 11]: 17.335%
tail-withdrawal latency, 40 min [2, 11]: 3.9125 s
%A-40 min [2, 12]: 14.29% and 16.91% and 15.83% and 12.78% and 7.81% and 6.82%
tail-withdrawal latency, 40 min [2, 12]: 3.6 s and 3.7 s and 3.3 s and 3.4 s and 3.2 s and 2.7 s
%A-50 min [2, 11]: 20.3588%
tail-withdrawal latency, 50 min [2, 11]: 4.2125 s
%A-50 min [2, 12]: 11.28% and 27.21% and 10.07% and 32.33% and 0% and 6.06%
tail-withdrawal latency, 50 min [2, 12]: 3.2 s and 5.1 s and 2.5 s and 6 s and 1.3 s and 2.6 s
%A-60 min [2, 11]: 11.2062%
tail-withdrawal latency, 60 min [2, 11]: 3.0875 s
%A-60 min [2, 12]: 3.76% and 12.5% and 6.47% and 0.75% and 6.25% and 1.52%
tail-withdrawal latency, 60 min [2, 12]: 2.2 s and 3.1 s and 2 s and 1.8 s and 3 s
%A-70 min [2, 11]: 9.87%
tail-withdrawal latency, 70 min [2, 11]: 2.85 s
%A-70 min [2, 12]: 5.26% and 19.85% and 3.6% and 7.52% and 0% and 10.61%
tail-withdrawal latency, 70 min [2, 12]: 2.4 s and 4.1 s and 1.6 s and 2.7 s and 1.8 s and 3.2 s
%A-80 min [2, 11]: 8.631%
tail-withdrawal latency, 80 min [2, 11]: 2.725 s
%A-80 min [2, 12]: 1.5% and 30.88% and 2.16% and 12.78% and 3.91% and 8.33%
tail-withdrawal latency, 80 min [2, 12]: 1.9 s and 5.6 s and 1.4 s and 3.4 s and 2.7 s and 2.9 s
%A-90 min [2, 11]: 1.379%
tail-withdrawal latency, 90 min [2, 11]: 1.7125 s
%A-90 min [2, 12]: 0% and 0.74% and 0.72% and 0.78% and 0.76%
tail-withdrawal latency, 90 min [2, 12]: 1.5 s and 1.2 s and 1.6 s and 2.3 s and 1.9 s
%A-100 min [2, 13]: 1.217%
tail-withdrawal latency, 100 min [2, 13]: 1.55 s
%A-100 min [2, 12]: 0.75% and 1.47% and 2.16% and 0%
tail-withdrawal latency, 100 min [2, 12]: 1.8 s and 1.6 s and 1.4 s and 1.5 s
%A-110 min [2, 13]: 0.365%
tail-withdrawal latency, 110 min [2, 13]: 1.467 s
%A-110 min [2, 12]: 0% and 0.74% and 0.72%
tail-withdrawal latency, 110 min [2, 12]: 1.7 s and 1.5 s and 1.2 s
%A-10 min [2, 14]: 100% and 55.47%
tail-withdrawal latency, 10 min [2, 14]: 15 s and 8.9 s
%A-20 min [2, 14]: 100%
tail-withdrawal latency, 20 min [2, 14]: 15 s
%A-30 min [2, 14]: 38.69% and 61.31%
tail-withdrawal latency, 30 min [2, 14]: 6.6 s and 9.7 s
%A-40 min [2, 14]: 31.39% and 32.85%
tail-withdrawal latency, 40 min [2, 14]: 5.6 s and 5.8 s
%A-50 min [2, 14]: 45.26% and 30.66%
tail-withdrawal latency, 50 min [2, 14]: 7.5 s and 5.5 s
%A-60 min [2, 14]: 13.14% and 45.26%
tail-withdrawal latency, 60 min [2, 14]: 3.1 s and 7.5 s
%A-70 min [2, 14]: 19.71% and 12.41%
tail-withdrawal latency, 70 min [2, 14]: 4 s and 3 s
%A-80 min [2, 14]: 8.03% and 1.46%
tail-withdrawal latency, 80 min [2, 14]: 2.4 s and 1.5 s
%A-90 min [2, 14]: 2.92% and 5.11%
tail-withdrawal latency, 90 min [2, 14]: 1.7 s and 2 s
%A-100 min [2, 14]: 0% and 2.92%
tail-withdrawal latency, 100 min [2, 14]: 1.3 s and 1.7 s
%A-110 min [2, 14]: 0% and 0.73%
tail-withdrawal latency, 110 min [2, 14]: 1.3 s and 1.4 s
antinociception in DOR KO mice vs WT [2, 15]: remained intact
antinociception in KOR KO mice vs WT [2, 15]: attenuated
antinociception in MOR KO mice vs WT [2, 15]: attenuated
EC50 ([3]; EC50 arrestin recruitment hDOR, Tango): 64.1 nM
Emax ([3]; HTLA, read-out: Emax% arrestin recruitment hDOR): 34 ± 3.7%
EC50 ([4]; EC50 G protein activation (BRET) mMOR): 3.61 nM
Emax ([4]; HEK-293T, read-out: Emax% G protein activation (BRET) mMOR): 42 ± 2.6%
Ki [5]: 0.23 ± 0.02 nM
Ki [6]: 0.39 ± 0.05 nM
Ki [7]: 0.39 nM
agonism at 330 non-olfactory GPCRs (in words) [8]: selective for opioid receptors; also recorded: no potent activity was confirmed
